Data published in patent publication US9518240B2, “Process for the treatment of liquefied hydrocarbons using 3-(piperazine-1-YL)propane-1,2-diol compounds” (Dow Global Technologies LLC, priority 2012, dated 2016).

Legend:
[1] = heptane 10 g, toluene 0.1 g (internal standard), amine 2.5 g; mixed at 20° C. for 1 hour, decanted 15 minutes; average of three injections
Description: A solution of heptane (10 g), toluene (0.1 g) and the tested amine (2.5 g) are mixed at 20° C. for 1 hour. The mixture is decanted for 15 minutes and the neat heptane phase is analyzed by gas chromatography using toluene as internal standard.

[2] = pKa by automated Mettler Toledo titration; conditions: water (50 weight % aqueous amine solution)

Compound	area counts (averaged GC peak area of tested amine in neat heptane phase) [1] [area counts]	pKa [2]
OCC(O)CN1CCNCC1 (stereo not drawn) [PPD, 3-(piperazine-1-YL)propane-1,2-diol]	132	9.5
C1CNCCN1 [Piperazine]	13748	–
